Experimental findings from US5250428A, “L-gulono-gamma-lactone-dehydrogenase for producing vitamin C” (Hoffmann-La Roche Inc., priority 1990, dated 1993) are described below.

Several values for one entry are separate records, joined by “and”; a condition that tells them apart may be missing. Equal entries are not always repeated.

Experiment [1] deals with L-gulono-gamma-lactone dehydrogenase (GLDH). The experiment in a line: Effect of metal ions on GLDH enzyme activity. In kind it is biochemical, Gluconobacter oxydans DSM 4025. On the procedure: The enzyme assay was performed at 25° C. by measuring the decrease of absorbance at 600 nm of DCIP spectrophotometrically. One unit of enzyme activity was defined as the amount of enzyme which catalyzed the reduction of 1 μmole of DCIP per minute. […] A reference cuvette contained all components except L-gulono gamma-lactone. The reaction was started by the addition of L-gulono-gamma-lactone. Enzyme activity was measured as the initial reduction rate of DCIP.
Using the same enzyme assay method as described under 1), the effect of various metal ions on the enzyme activity was examined.

For experiment [2] the test system is unchanged. As to the kind of experiment: Substrate specificity of GLDH (DCIP reduction enzyme assay). The class given is biochemical, Gluconobacter oxydans DSM 4025. As to conditions: substrate 400 mM; for Relative activity (%): 25° C., DCIP/PMS, L-gulono-gamma-lactone = 100. The method, then: (§1) The enzyme assay was performed at 25° C. by measuring the decrease of absorbance at 600 nm of DCIP spectrophotometrically. One unit of enzyme activity was defined as the amount of enzyme which catalyzed the reduction of 1 μmole of DCIP per minute. The extinction coefficient of DCIP at pH 7.0 was taken as 14.5 mM^-1. A cuvette with 1 cm light path contained 0.16 mM DCIP, 1.6 mM phenazine methosulfate, 200 mM potassium phosphate buffer, 400 mM L-gulono-gamma-lactone, enzyme solution and water in a final volume of 0.5 ml. A reference cuvette contained all components except L-gulono gamma-lactone. The reaction was started by the addition of L-gulono-gamma-lactone. Enzyme activity was measured as the initial reduction rate of DCIP.
Substrate specificity of the enzyme was determined using the same enzyme assay method as described as above except that the various substrate solutions (400 mM) were used instead of L-gulono-gamma-lactone.

Experiment [3] shares this test system. As to the kind of experiment: Effect of inhibitors on GLDH enzyme activity. The class given is biochemical, Gluconobacter oxydans DSM 4025. The method, then: as §1
Using the same enzyme assay method as described above, the effect of various inhibitors on the enzyme activity was examined. No compounds tested gave an inhibitory effect on the GLDH.

Experiment [4] shares this test system. As to the kind of experiment: Measurement of the Km value (DCIP enzyme assay). In kind it is biochemical, Gluconobacter oxydans DSM 4025. The method, then: as §1
Using the same enzyme assay method as described above, the rate of the oxidizing reaction with varying the concentrations of L-gulono-gamma lactone from 0.18 mM to 90 mM was measured to determine the Km value for L-gulono-gamma-lactone.

Experiment [5] has the same test system. Particulars: conversion of L-gulono-gamma-lactone to L-ascorbic acid.

As for `O.O.O.O.O=[N+]([O-])[O-].O=[N+]([O-])[O-].[Ca+2]` [Ca(NO3)2.4H2 O], the “Relative activity (%)” value in experiment [1] (metal 0.19 mM) was 100%; in experiment [1] (metal 0.38 mM), 100%; in experiment [1] (metal 0.89 mM) it was 96%.

As for `[Ca+2].[Cl-].[Cl-]` [CaCl2], the “Relative activity (%)” value in experiment [1] (metal 0.19 mM) is recorded as 96%; in experiment [1] (metal 0.38 mM) it was 104%; in experiment [1] (metal 0.89 mM), 96%.

Take `O.O.O.O.O.O.[Cl-].[Cl-].[Co+2]` [CoCl2.6H2 O]: the figures for the “Relative activity (%)” value in experiment [1] (metal 0.19 mM), in experiment [1] (metal 0.38 mM) and in experiment [1] (metal 0.89 mM) were 102%, 110% and 100%, respectively.

Turning to `O.O.O.O.O.O.O.O=S(=O)([O-])[O-].[Co+2]` [CoSO4.7H2 O], the “Relative activity (%)” value in experiment [1] (metal 0.19 mM) was determined as 96%; in experiment [1] (metal 0.38 mM), 108%; in experiment [1] (metal 0.89 mM), 88%.

For `O.O.O.O=[N+]([O-])[O-].O=[N+]([O-])[O-].[Cu+2]` [Cu(NO3)2.3H2 O], the “Relative activity (%)” value in experiment [1] (metal 0.19 mM) was determined as 88%; in experiment [1] (metal 0.38 mM), 24%; in experiment [1] (metal 0.89 mM) it was 0%.

For `O.O.[Cl][Cu][Cl]` [CuCl2.2H2 O], the “Relative activity (%)” value in experiment [1] (metal 0.19 mM) was determined as 84%; in experiment [1] (metal 0.38 mM), 8%; in experiment [1] (metal 0.89 mM) it was 0%.

Take `O.O.O.O.O.O=S(=O)([O-])[O-].[Cu+2]` [CuSO4.5H2 O]: the “Relative activity (%)” value was 80% in experiment [1] (metal 0.19 mM), 20% in experiment [1] (metal 0.38 mM) and 0% in experiment [1] (metal 0.89 mM).

As for `O=S(=O)([O-])[O-].[Cu+2]` [CuSO4], the results for the “Relative activity (%)” value in experiment [1] (metal 0.19 mM), in experiment [1] (metal 0.38 mM) and in experiment [1] (metal 0.89 mM) were 92%, 24% and 12%, respectively.

In the case of `[Cu+2]` [Cu^2+], the “inhibition of the enzyme by metal ion” value in experiment [1] is given as “strong inhibition”.

As to `O=C[C@H](O)[C@@H](O)[C@@H](O)[C@H](O)CO` [D-Galactose], in experiment [2], the “Relative activity (%)” value is 0%.

Take `O=C(O)[C@H](O)[C@@H](O)[C@H](O)[C@H](O)CO` [D-Gluconic acid]: the “Relative activity (%)” value in experiment [2] came out at 0%.

As for `O=C1O[C@H](CO)[C@@H](O)[C@H](O)[C@H]1O` [D-Glucono-δ-lactone], the “Relative activity (%)” value in experiment [2] stood at 0%.

In the case of `O=C[C@H](O)[C@@H](O)[C@H](O)[C@H](O)CO` [D-Glucose], in experiment [2], the “activity of GLDH on substrate” value is given as “weakly active” and the “Relative activity (%)” value is given as 23.4%.

`O=C[C@H](O)[C@@H](O)[C@H](O)[C@H](O)C(=O)O` [D-Glucuronic acid]: the “Relative activity (%)” value in experiment [2] was 0%.

With `O=C[C@H](O)[C@H]1OC(=O)[C@@H](O)[C@H]1O` [D-Glucurono-r-lactone], in experiment [2], the “activity of GLDH on substrate” value was “weakly active” and the “Relative activity (%)” value is 6.38%.

Consider `O=C[C@@H](O)[C@@H](O)[C@H](O)[C@H](O)CO` [D-Mannose], for which, in experiment [2], the “activity of GLDH on substrate” value was “weakly active” and the “Relative activity (%)” value worked out at 7.23%.

Consider `O=C[C@H](O)[C@@H](O)[C@H](O)CO` [D-Xylose], for which, in experiment [2], the “activity of GLDH on substrate” value is “highly active” and the “Relative activity (%)” value is 110.6%.

Consider `O=C(O)CN(CCN(CC(=O)O)CC(=O)O)CC(=O)O` [EDTA], for which, in experiment [3], the “Relative activity (%)” value was 95.2% and 100% and 90.5%.

For the molecule `NN` [Hydrazine monohydrate], the “Relative activity (%)” value in experiment [3] (inhibitor 1.0 mM) amounted to 100%.

Consider `Cl.NO` [Hydroxylamine hydrocloride], for which the “Relative activity (%)” value in experiment [3] (inhibitor 1.0 mM) and in experiment [3] (inhibitor 2.0 mM) was 100% each time.

As for `O=C1O[C@H]([C@@H](O)CO)[C@@H](O)[C@@H]1O` [L-Galactono-r-lactone, L-galactono-gamma-lactone], in experiment [2], the “activity of GLDH on substrate” value is “does not use L-galactono-gamma-lactone as a substrate” and the “Relative activity (%)” value amounted to 0%.

Consider `O=C1O[C@H]([C@@H](O)CO)[C@H](O)[C@@H]1O` [L-Gulono-r-lactone, L-gulono-gamma-lactone], for which, in experiment [2], the “activity of GLDH on substrate” value is “highly active” and the “Relative activity (%)” value came to 100%. For the same molecule, in experiment [4] (DCIP as the electron acceptor, substrate 0.18 mM to 90 mM, read-out: apparent Michaelis constant (Km)), the Km (usually the substrate concentration at which the rate is half of its maximum) was 34.8 mM. The “substrate concentration of maximum reaction rate” value in experiment [4] (substrate varied 0.18 mM to 90 mM) is given as “about 71.8 mM”.

In the case of `O=C[C@@H](O)[C@@H](O)[C@H](O)[C@@H](O)CO` [L-Gulose], the “Relative activity (%)” value in experiment [2] is 0%.

On to `O.O.O.O.O.O.[Cl-].[Cl-].[Mg+2]` [MgCl2.6H2 O], for which the “Relative activity (%)” value in experiment [1] (metal 0.19 mM), in experiment [1] (metal 0.38 mM) and in experiment [1] (metal 0.89 mM) was 96% throughout.

In the case of `O.O.O.O.O.O.O.O=S(=O)([O-])[O-].[Mg+2]` [MgSO4.7H2 O], the “Relative activity (%)” value in experiment [1] (metal 0.19 mM) amounted to 92%; in experiment [1] (metal 0.38 mM) it was 96%; in experiment [1] (metal 0.89 mM), 92%.

With `O.O.O.O.[Cl][Mn][Cl]` [MnCl2.4H2 O], the entries for the “Relative activity (%)” value in experiment [1] (metal 0.19 mM), in experiment [1] (metal 0.38 mM) and in experiment [1] (metal 0.89 mM) were 100%, 0% and 0%, respectively.

For the molecule `[Mn+2]` [Mn^2+], in experiment [1], the “inhibition of the enzyme by metal ion” value is listed as “strong inhibition”.

`O=C(O)CI` [Monoiodoacetate]: in experiment [3], the “Relative activity (%)” value is 104.8% and 100% and 92.9%.

`CCN1C(=O)C=CC1=O` [N-Ethyl-maleimide]: the “Relative activity (%)” value is reported as 95.2% in experiment [3] (inhibitor 0.96 mM), 100% in experiment [3] (inhibitor 1.89 mM) and 100% in experiment [3] (inhibitor 4.46 mM).

In the case of `O.O.O.O.O.O.O.O=[As]([O-])([O-])O.[Na+].[Na+]` [Na2 HAsO4 7H2 O], the “Relative activity (%)” value in experiment [3] (inhibitor 0.96 mM) is 95.2%; in experiment [3] (inhibitor 1.89 mM), 104.8%; in experiment [3] (inhibitor 4.46 mM), 97.6%.

On to `O.O.[Na+].[Na+].[O]=[Mo](=[O])([O-])[O-]` [Na2 MoO4.2H2 O], for which the “Relative activity (%)” value in experiment [1] (metal 0.19 mM) amounted to 104%; in experiment [1] (metal 0.38 mM), 96%; in experiment [1] (metal 0.89 mM) it was 88%.

`O.O.O.O.O.O.O.O=S(=O)([O-])[O-].[Ni+2]` [NiSO4.7H2 O]: the “Relative activity (%)” value is given as 96% in experiment [1] (metal 0.19 mM), 96% in experiment [1] (metal 0.38 mM) and 88% in experiment [1] (metal 0.89 mM).

In the case of `O=C(O)c1cc[c]([Hg][Cl])cc1` [PCMB, p-chloro-mercuribenzoate], the “Relative activity (%)” value in experiment [3] (inhibitor 0.96 mM) is 90.5%; in experiment [3] (inhibitor 1.89 mM) it was 102.4%; in experiment [3] (inhibitor 4.46 mM), 100%.

Regarding `[N-]=[N+]=[N-]` [Sodium azide], the “Relative activity (%)” value in experiment [3] (inhibitor 0.96 mM) is listed as 100%; in experiment [3] (inhibitor 1.89 mM), 97.6%; in experiment [3] (inhibitor 4.46 mM), 97.6%.

As to `[F-].[Na+]` [Sodium fluoride], the “Relative activity (%)” value in experiment [3] (inhibitor 0.96 mM) worked out at 107.1%; in experiment [3] (inhibitor 1.89 mM), 114.3%; in experiment [3] (inhibitor 4.46 mM) it was 97.6%.

For `[Cl-].[Cl-].[Zn+2]` [ZnCl2], the “Relative activity (%)” value worked out at 88% in experiment [1] (metal 0.19 mM), 88% in experiment [1] (metal 0.38 mM) and 80% in experiment [1] (metal 0.89 mM).

For the molecule `O.O.O.O.O.O.O.O=S(=O)([O-])[O-].[Zn+2]` [ZnSO4.7H2 O], the entries for the “Relative activity (%)” value in experiment [1] (metal 0.19 mM), in experiment [1] (metal 0.38 mM) and in experiment [1] (metal 0.89 mM) were 88%, 88% and 76%, respectively.

Turning to `O=O` [oxygen], the “enzyme activity with oxygen as electron acceptor” value in experiment [5] is “lack of enzyme catalyzing activity”.

Take Fe(SO4)3.xH2 O: the “Relative activity (%)” value in experiment [1] (metal 0.19 mM) is listed as 104%; in experiment [1] (metal 0.38 mM), 92%; in experiment [1] (metal 0.89 mM), 76%.

Consider MnSO4.4-6H2 O, for which the figures for the “Relative activity (%)” value in experiment [1] (metal 0.19 mM), in experiment [1] (metal 0.38 mM) and in experiment [1] (metal 0.89 mM) were 100%, 0% and 0%, respectively.

As to TiCl, the “Relative activity (%)” value in experiment [1] (metal 0.19 mM) was 88%; in experiment [1] (metal 0.38 mM) it was 92%; in experiment [1] (metal 0.89 mM) it was 80%.
